Laboratory results: ChEMBL document CHEMBL4715815, “Design, synthesis and biological evaluation of 7H-pyrrolo[2,3-d]pyrimidin-4-amine derivatives as selective Btk inhibitors with improved pharmacokinetic properties for the treatment of rheumatoid arthritis” (Eur J Med Chem, 2018)
The source made the active and inactive calls. The calls are words filed in the database; no cut-off is given here.

Tests used:
[1] = Tmax in Sprague-Dawley rat at 3 mg/kg, iv measured up to 24 hrs by LC-MS/MS analysis; assay type: ADME, organism-based; conditions: in vivo
[2] = Toxicity in BALB/c mouse assessed as free movement at 2 g/kg, po measured after 7 days of administration; conditions: in vivo, 168 h
[3] = AUC (0 to t) in Sprague-Dawley rat at 3 mg/kg, po measured up to 24 hrs by LC-MS/MS analysis; assay type: ADME, organism-based; design: route oral, dose 3 mg/kg, time <=24; conditions: in vivo
[4] = Toxicity in BALB/c mouse assessed as effect on liver at 2 g/kg, po measured after 7 days of administration by histopathological analysis; conditions: in vivo, 168 h
[5] = Toxicity in BALB/c mouse assessed as effect on spleen at 2 g/kg, po measured after 7 days of administration by histopathological analysis; conditions: in vivo, 168 h
[6] = Cmax in Sprague-Dawley rat at 3 mg/kg, po measured up to 24 hrs by LC-MS/MS analysis; assay type: ADME, organism-based; design: route oral, dose 3 mg/kg, time <=24; conditions: in vivo
Mus musculus [7] = experiment: Antiarthritic activity in DBA/1J mouse model of collagen-induced arthritis assessed as reduction in paw thickness at 20 mg/kg, po administered for 30 days and measured on day 30; assay type: functional, organism-based; conditions: time 30.0 day
[8] = Metabolic stability in mouse liver microsomes assessed as half life at 100 uM/L measured upto 90 mins by LC-MS/MS analysis; assay type: ADME, Microsome
[9] = target: Tyrosine-protein kinase Blk (Homo sapiens, UniProt P51451); experiment: Inhibition of BLK (unknown origin)
[10] = target: T1, Tyrosine-protein kinase BTK (Homo sapiens, UniProt Q06187); experiment: Inhibition of BTK in human Raji cells assessed as reduction in PLCgamma2 Y1217 phosphorylation at 0.03 to 10 uM incubated for 1 hr by Western blot analysis; assay type: cell-based; conditions: dose 0.03-10 µM
[11] = target: T1, Tyrosine-protein kinase BTK; experiment: Inhibition of BTK in human Daudi cells assessed as reduction in PLCgamma2 Y1217 phosphorylation at 0.03 to 10 uM incubated for 1 hr by Western blot analysis; assay type: cell-based; conditions: dose 0.03-10 µM
[12] = target: Calcium/calmodulin-dependent protein kinase type IV (Homo sapiens, UniProt Q16566); experiment: Inhibition of CAMK4 (unknown origin)
[13] = target: NT-3 growth factor receptor (Homo sapiens, UniProt Q16288); experiment: Inhibition of TRKc (unknown origin)
[14] = target: Tyrosine-protein kinase HCK (Homo sapiens, UniProt P08631); experiment: Inhibition of HCK (unknown origin)
[15] = target: Ribosomal protein S6 kinase alpha-2 (Homo sapiens, UniProt Q15349); experiment: Inhibition of RSK3 (unknown origin)
[16] = Metabolic stability in rat liver microsomes assessed as intrinsic clearance at 100 uM/L measured upto 90 mins by LC-MS/MS analysis; assay type: ADME, Microsome; conditions: 1.5 h
[17] = Toxicity in BALB/c mouse assessed as effect on sensitive to light at 2 g/kg, po measured after 7 days of administration; conditions: in vivo, 168 h
[18] = target: Tyrosine-protein kinase Fyn (Homo sapiens, UniProt P06241); experiment: Inhibition of recombinant human FYN using biotinyl-beta Abeta-Abeta AYQAEENTYDEYEN as substrate incubate for 60 mins by LANCE assay
[19] = target: Tyrosine-protein kinase ITK/TSK (Homo sapiens, UniProt Q08881); experiment: Inhibition of ITK (unknown origin)
[20] = target: T1, Tyrosine-protein kinase BTK; experiment: Inhibition of BTK in human U2932 cells assessed as reduction in BTK Y551 phosphorylation at 0.03 to 10 uM incubated for 1 hr by Western blot analysis; assay type: cell-based; conditions: dose 0.03-10 µM
[21] = target: T1, Tyrosine-protein kinase BTK; experiment: Inhibition of BTK in human Daudi cells assessed as reduction in BTK Y551 phosphorylation at 0.03 to 10 uM incubated for 1 hr by Western blot analysis; assay type: cell-based; conditions: dose 0.03-10 µM
[22] = target: Mitogen-activated protein kinase kinase kinase 2 (Homo sapiens, UniProt Q9Y2U5); experiment: Inhibition of MEKK2 (unknown origin)
[23] = target: Tyrosine-protein kinase TXK (Homo sapiens, UniProt P42681); experiment: Inhibition of TXK (unknown origin)
[24] = Volume of distribution in Sprague-Dawley rat at 3 mg/kg, po measured up to 24 hrs by LC-MS/MS analysis; assay type: ADME, organism-based; conditions: in vivo
[25] = Metabolic stability in monkey liver microsomes assessed as intrinsic clearance at 100 uM/L measured upto 90 mins by LC-MS/MS analysis; assay type: ADME, Macaca mulatta, Microsome; conditions: rhesus monkey, 1.5 h
[26] = target: Tyrosine-protein kinase Yes (Homo sapiens, UniProt P07947); experiment: Inhibition of recombinant human YES using biotinyl-beta Abeta-Abeta AYQAEENTYDEYEN as substrate incubate for 30 mins by LANCE assay
Mus musculus [27] = experiment: Antiarthritic activity in DBA/1J mouse model of collagen-induced arthritis at 20 mg/kg, po administered for 30 days and measured on day 30; assay type: functional, organism-based; conditions: time 30.0 day
[28] = Metabolic stability in mouse liver microsomes assessed as intrinsic clearance at 100 uM/L measured upto 90 mins by LC-MS/MS analysis; assay type: ADME, Microsome; conditions: 1.5 h
[29] = Toxicity in BALB/c mouse assessed as effect on kidney at 2 g/kg, po measured after 7 days of administration by histopathological analysis; conditions: in vivo, 168 h
[30] = Oral bioavailability in Sprague-Dawley rat at 3 mg/kg measured up to 24 hrs by LC-MS/MS analysis; assay type: ADME, organism-based; conditions: in vivo
[31] = target: Tyrosine-protein kinase Fgr (Homo sapiens, UniProt P09769); experiment: Inhibition of FGR (unknown origin)
[32] = target: Proto-oncogene tyrosine-protein kinase Src (Homo sapiens, UniProt P12931); experiment: Inhibition of recombinant human SRC using Ulight-Poly GAT[EAY(1:1:1)]n as substrate incubate for 10 mins by LANCE assay
[33] = AUC (0 to t) in Sprague-Dawley rat at 3 mg/kg, iv measured up to 24 hrs by LC-MS/MS analysis; assay type: ADME, organism-based; design: route intravenous, dose 3 mg/kg, time <=24; conditions: in vivo
[34] = target: Ribosomal protein S6 kinase alpha-1 (Homo sapiens, UniProt Q15418); experiment: Inhibition of RSK1 (unknown origin)
[35] = target: Tyrosine-protein kinase SYK (Homo sapiens, UniProt P43405); experiment: Inhibition of SYK (unknown origin)
[36] = target: Macrophage colony-stimulating factor 1 receptor (Homo sapiens, UniProt P07333); experiment: Inhibition of recombinant human FMS using Ulight-TK peptide as substrate incubate for 15 mins by LANCE assay
[37] = Volume of distribution in Sprague-Dawley rat at 3 mg/kg, iv measured up to 24 hrs by LC-MS/MS analysis; assay type: ADME, organism-based; conditions: in vivo
[38] = target: Tyrosine-protein kinase CSK (Homo sapiens, UniProt P41240); experiment: Inhibition of CSK (unknown origin)
[39] = target: Ribosomal protein S6 kinase beta-1 (Homo sapiens, UniProt P23443); experiment: Inhibition of recombinant human p70S6K using CREBtide as substrate incubate for 15 mins by LANCE assay
[40] = target: Ribosomal protein S6 kinase alpha-6 (Homo sapiens, UniProt Q9UK32); experiment: Inhibition of RSK4 (unknown origin)

T1 sequence (Q06187 whole entry): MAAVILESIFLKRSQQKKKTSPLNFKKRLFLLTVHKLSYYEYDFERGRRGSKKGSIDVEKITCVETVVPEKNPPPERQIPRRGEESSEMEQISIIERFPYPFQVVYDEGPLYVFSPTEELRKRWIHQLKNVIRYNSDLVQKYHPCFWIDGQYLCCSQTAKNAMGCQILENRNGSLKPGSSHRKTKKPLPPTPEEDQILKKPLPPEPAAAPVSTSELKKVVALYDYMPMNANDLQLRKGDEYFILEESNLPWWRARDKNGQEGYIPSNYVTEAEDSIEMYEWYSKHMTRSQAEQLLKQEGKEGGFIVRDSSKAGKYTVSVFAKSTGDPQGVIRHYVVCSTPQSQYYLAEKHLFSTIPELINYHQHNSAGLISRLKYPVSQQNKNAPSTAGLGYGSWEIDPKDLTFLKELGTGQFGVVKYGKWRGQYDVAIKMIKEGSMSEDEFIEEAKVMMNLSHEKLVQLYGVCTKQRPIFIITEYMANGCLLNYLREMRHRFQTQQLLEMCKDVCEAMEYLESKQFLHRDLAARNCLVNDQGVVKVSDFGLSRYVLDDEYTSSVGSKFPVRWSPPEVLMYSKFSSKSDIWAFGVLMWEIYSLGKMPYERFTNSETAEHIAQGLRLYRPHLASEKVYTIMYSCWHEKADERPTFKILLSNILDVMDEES
Chain of Ribosomal protein S6 kinase alpha-2 (Q15349 whole entry): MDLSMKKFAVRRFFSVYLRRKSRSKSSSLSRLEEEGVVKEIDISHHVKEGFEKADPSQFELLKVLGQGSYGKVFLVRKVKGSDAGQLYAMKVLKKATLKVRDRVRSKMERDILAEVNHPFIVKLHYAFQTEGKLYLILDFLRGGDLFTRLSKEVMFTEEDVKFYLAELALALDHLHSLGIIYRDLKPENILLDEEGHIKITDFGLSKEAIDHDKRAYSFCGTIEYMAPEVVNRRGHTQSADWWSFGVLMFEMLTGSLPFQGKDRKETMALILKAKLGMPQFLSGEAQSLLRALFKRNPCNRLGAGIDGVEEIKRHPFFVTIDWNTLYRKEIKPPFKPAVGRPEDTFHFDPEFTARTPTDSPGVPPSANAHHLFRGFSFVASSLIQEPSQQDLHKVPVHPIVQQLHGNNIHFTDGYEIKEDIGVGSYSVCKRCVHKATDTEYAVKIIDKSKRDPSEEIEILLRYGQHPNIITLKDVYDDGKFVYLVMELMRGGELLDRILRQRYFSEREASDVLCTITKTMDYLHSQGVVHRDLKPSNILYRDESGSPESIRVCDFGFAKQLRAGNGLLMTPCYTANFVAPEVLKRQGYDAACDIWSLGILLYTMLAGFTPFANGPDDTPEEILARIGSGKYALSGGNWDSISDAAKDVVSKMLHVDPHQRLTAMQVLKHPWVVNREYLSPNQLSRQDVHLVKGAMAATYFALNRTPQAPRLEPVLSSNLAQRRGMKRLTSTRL
Chain of Tyrosine-protein kinase Fgr (P09769 whole entry): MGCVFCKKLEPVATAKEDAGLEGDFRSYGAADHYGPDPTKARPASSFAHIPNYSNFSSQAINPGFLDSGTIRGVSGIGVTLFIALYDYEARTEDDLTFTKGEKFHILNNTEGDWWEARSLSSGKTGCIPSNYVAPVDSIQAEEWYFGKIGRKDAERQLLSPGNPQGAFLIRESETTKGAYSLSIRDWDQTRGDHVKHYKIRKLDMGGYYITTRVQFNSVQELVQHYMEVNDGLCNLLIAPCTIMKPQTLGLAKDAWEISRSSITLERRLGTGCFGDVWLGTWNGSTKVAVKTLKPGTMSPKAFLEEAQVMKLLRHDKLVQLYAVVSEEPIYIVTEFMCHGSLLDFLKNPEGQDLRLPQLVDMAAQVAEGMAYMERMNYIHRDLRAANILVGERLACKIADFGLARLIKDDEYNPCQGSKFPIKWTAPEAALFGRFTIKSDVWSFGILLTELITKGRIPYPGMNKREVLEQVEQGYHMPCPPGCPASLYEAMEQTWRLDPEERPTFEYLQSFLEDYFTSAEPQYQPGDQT
Chain of Calcium/calmodulin-dependent protein kinase type IV (Q16566 whole entry): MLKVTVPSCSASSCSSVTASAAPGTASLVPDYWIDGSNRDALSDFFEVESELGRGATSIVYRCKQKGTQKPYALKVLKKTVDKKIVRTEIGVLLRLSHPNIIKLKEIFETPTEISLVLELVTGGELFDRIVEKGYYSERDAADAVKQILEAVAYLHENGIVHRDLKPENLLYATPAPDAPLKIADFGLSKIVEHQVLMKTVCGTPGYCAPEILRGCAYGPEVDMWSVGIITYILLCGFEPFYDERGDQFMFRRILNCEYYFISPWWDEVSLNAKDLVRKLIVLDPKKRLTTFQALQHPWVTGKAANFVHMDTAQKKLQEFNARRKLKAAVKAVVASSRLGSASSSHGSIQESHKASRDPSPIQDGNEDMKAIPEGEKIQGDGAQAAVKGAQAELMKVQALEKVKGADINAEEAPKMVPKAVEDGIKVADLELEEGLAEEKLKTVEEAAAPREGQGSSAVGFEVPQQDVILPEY
Chain of Tyrosine-protein kinase ITK/TSK (Q08881 whole entry): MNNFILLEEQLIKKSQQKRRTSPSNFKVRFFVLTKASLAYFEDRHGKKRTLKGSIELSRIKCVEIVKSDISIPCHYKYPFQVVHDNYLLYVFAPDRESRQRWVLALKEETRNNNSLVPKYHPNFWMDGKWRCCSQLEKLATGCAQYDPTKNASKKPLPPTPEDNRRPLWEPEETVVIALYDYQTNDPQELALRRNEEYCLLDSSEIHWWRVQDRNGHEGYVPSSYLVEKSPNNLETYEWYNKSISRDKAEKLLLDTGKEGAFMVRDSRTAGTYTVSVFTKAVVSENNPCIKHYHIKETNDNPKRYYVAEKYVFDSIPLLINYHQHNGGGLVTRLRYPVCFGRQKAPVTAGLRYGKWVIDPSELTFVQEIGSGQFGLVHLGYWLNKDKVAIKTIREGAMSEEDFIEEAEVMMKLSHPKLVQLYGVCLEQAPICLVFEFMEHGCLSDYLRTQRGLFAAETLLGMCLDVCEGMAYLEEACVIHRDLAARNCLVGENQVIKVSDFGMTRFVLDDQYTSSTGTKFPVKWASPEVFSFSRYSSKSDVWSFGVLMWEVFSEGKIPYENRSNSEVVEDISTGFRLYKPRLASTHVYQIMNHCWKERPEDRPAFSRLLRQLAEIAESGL
Chain of Tyrosine-protein kinase TXK (P42681 whole entry): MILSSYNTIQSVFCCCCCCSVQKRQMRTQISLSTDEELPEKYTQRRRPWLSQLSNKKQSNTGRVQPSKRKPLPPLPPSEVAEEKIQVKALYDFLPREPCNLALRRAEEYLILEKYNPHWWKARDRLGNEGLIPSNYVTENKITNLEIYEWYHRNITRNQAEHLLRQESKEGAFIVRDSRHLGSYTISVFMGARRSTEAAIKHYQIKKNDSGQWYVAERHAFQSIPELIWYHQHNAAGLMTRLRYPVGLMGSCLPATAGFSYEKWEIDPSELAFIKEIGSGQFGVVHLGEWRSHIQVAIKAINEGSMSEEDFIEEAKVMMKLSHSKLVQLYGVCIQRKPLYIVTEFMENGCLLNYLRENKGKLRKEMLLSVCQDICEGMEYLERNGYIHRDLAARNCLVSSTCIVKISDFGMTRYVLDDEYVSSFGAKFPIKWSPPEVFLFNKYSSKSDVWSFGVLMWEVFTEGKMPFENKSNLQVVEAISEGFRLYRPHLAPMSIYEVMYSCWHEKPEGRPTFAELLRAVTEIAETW
Chain of Tyrosine-protein kinase CSK (P41240 whole entry): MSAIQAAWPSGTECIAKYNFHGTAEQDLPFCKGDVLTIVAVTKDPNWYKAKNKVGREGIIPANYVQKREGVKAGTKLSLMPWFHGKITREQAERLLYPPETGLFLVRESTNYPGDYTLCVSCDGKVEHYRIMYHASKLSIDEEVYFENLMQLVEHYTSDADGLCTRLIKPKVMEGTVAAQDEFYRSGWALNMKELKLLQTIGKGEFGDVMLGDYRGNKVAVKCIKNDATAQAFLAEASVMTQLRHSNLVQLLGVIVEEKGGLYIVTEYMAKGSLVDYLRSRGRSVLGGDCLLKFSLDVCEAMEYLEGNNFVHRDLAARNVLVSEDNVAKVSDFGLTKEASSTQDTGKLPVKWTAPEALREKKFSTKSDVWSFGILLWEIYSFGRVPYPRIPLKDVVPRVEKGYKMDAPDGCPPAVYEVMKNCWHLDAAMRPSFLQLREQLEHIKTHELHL
Chain of Tyrosine-protein kinase Blk (P51451 whole entry): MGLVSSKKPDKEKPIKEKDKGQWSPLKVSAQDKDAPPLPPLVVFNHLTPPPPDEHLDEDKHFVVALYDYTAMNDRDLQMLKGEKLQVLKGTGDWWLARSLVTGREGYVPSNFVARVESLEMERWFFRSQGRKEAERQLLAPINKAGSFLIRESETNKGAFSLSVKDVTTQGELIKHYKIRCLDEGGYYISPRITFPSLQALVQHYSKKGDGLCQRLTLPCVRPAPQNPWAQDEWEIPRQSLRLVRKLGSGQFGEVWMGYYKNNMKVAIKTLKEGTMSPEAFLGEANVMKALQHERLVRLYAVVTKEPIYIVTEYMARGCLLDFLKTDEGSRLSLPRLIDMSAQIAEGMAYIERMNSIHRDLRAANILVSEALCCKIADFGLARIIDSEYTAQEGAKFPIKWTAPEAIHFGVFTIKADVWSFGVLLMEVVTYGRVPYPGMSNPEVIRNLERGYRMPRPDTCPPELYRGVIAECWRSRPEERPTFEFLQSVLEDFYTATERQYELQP
Chain of Ribosomal protein S6 kinase beta-1 (P23443 whole entry): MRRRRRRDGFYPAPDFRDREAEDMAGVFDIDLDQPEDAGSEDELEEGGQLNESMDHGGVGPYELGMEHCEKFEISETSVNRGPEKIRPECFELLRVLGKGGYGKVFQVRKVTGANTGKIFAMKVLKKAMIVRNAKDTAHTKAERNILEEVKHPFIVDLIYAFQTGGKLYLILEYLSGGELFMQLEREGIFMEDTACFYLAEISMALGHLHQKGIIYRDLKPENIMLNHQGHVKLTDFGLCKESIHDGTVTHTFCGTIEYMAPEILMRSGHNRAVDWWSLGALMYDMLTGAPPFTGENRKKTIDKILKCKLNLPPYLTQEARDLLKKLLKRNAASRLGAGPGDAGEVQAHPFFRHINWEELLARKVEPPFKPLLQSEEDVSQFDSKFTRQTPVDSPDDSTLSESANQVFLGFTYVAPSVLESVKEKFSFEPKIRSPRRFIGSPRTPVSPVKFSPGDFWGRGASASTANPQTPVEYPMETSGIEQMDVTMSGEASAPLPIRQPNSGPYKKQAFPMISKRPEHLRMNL

## C=CC(=O)N1CCC(Cn2cc(-c3ccc4c(c3)OCO4)c3c(N)ncnc32)CC1
[1]
  Tmax: 6.6 min
[2]
  Activity: Non-Toxic
[3]
  AUC(0-t) at 24 h: 1.24 µg·h/mL
[4]
  Activity: Non-Toxic
[5]
  Activity: Non-Toxic
[6]
  Cmax: 0.258 µg/mL
Mus musculus [7]
  Activity: Active
[8]
  half-life at 100 µM: 4.28 h
[9]
  IC50: 0.504 µM
[10]
  inhibition: Active
[11]
  inhibition: Active
[12]
  IC50: > 10 µM
[13]
  IC50: > 10 µM
[14]
  IC50: 1.11 µM
[15]
  IC50: > 10 µM
[16]
  CLH: 7.4 µL/min/mg
[17]
  Activity: Non-Toxic
[18]
  IC50: 1.01 µM
[19]
  IC50: > 10 µM
[20]
  inhibition: inactive
[21]
  inhibition: inactive
[22]
  IC50: > 10 µM
[23]
  IC50: 0.331 µM
[24]
  Vd: 26.15 L/kg
[25]
  CLH: 8.2 µL/min/mg
[26]
  IC50: 0.146 µM
Mus musculus [27]
  Activity: Active
[28]
  CLH: 5.4 µL/min/mg
[29]
  Activity: Non-Toxic
[30]
  bioavailability: 49.1%
[31]
  IC50: 0.657 µM
[32]
  IC50: 1 µM
[33]
  AUCt: 2.52228 µg·h/mL
[34]
  IC50: > 10 µM
[35]
  IC50: > 10 µM
[36]
  IC50: > 10 µM
[37]
  Vd: 1.21 L/kg
[38]
  IC50: > 10 µM
[39]
  IC50: > 10 µM
[40]
  IC50: > 10 µM
